Entries after “also recorded” stand apart in the source; their conditions may differ.
How the values were obtained:
[1] = test system: ConA-induced hepatitis mouse model; experiment: Concanavalin A-induced hepatitis model, liver histology score (H&E); format: in vivo, mice (C57BL/6); conditions: 15 hours following ConA; for Infiltrating leukocytes (%) / Lymphocyte adhesion (%) / Necrotic lesions (%): histological score, mean ± SD, AAT 0.35 mg/mouse IP, Dexamethasone 0.35 mg/mouse
Procedure: (§1) Animals—Male C57BL/6 mice (11-12 weeks old) were obtained from Harlan Laboratories (Jerusalem, Israel) and were maintained in the Animal Core of the Hadassah-Hebrew University Medical School. The mice received standard laboratory food and water ad libitum and were housed in a 12-hour light/dark cycle. All animal experiments were performed according to the guidelines and with the approval of the Hebrew University-Hadassah Institutional Committee for the Care and Use of Laboratory Animals.
(§2) Concanavalin A-induced hepatitis model—Concanavalin A (ConA, MP Biomedicals, USA) was dissolved in a solution consisting of 50 mM Tris pH 7, 150 mM NaCl, and 4 mM CaCl2 and injected into the tail vein at a dose of 500 μg/mouse (15 mg/kg) in 250 μl. Mice were sacrificed 15 hours following ConA injection. Mice (n=5-6 mice per group) were administered orally or intraperitoneally (IP), as indicated, DDW (control); Dexamethasone (0.35 mg/mouse, control); or alpha-1 anti-trypsin (AAT, Sigma A-9024) at a dose of 0.2, 0.35, 1.0 or 2.0 mg per mouse, 2 hours prior ConA treatment.
Histology—Mice were sacrificed at the indicated times and their livers were harvested. Paraffin-embedded liver sections were prepared from and sliced into 4-5 μm-thick sections and stained with hematoxylin-eosin (H&E). The sections were scored according to the extent of liver damage using a previously described method^13, 14 with the following parameters: lymphocyte adhesion to hepatic and portal veins and sinusoids, the number of infiltrating leukocytes into the liver parenchyma, and the number of necrotic lesions (all per 10× high-power field).

[2] = biological target: 1-AZT, a misfolded but functionally active mutant of α1-antitrypsin (Homo sapiens, UniProt P01009, E366K); conditions: model cell culture system; cited from earlier work
1-AZT, a misfolded but functionally active mutant of α1-antitrypsin, sequence (P01009 25-418 E366K): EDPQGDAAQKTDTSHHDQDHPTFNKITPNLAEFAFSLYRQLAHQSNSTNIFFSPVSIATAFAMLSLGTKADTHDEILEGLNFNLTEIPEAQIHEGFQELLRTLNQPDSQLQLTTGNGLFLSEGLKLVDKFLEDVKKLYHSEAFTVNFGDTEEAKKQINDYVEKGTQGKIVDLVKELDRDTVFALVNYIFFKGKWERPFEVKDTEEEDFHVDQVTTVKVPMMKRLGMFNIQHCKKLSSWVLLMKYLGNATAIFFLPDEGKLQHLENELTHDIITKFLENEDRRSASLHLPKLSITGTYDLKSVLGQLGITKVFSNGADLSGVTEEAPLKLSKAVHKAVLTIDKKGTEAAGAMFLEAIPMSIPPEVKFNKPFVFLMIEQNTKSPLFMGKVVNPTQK

[3] = test system: APAP-mediated liver damage mouse model; experiment: Acetaminophen-mediated hepatotoxicity model, serum liver enzymes; format: in vivo, mice (C57BL/6); conditions: 2 hours following APAP, 24 hours following APAP, vs control (DDW)
Procedure: as §1
Acetaminophen-mediated hepatotoxicity model—Acetaminophen (APAP)-mediated hepatotoxicity was induced in mice via oral administration of 4 mg APAP (Tiptipot, CST). Mice (n=5 mice per group) were administered IP DDW (control) or AAT at a dose of 0.25 or 0.5 mg per mouse, 2 hours following administration of APAP
(§3) Assessment of Liver toxicity—Serum was obtained from individual mice at the indicated times and the levels of aspartate aminotransferase (AST) and alanine aminotransferase (ALT) were determined using a standard automated analyzer.

[4] = test system: ConA-induced hepatitis mouse model; experiment: Concanavalin A-induced hepatitis model, serum liver enzymes (ALT, AST); format: in vivo, mice (C57BL/6)
Procedure: as §1, §2, §3

[5] = test system: high fat diet (HFD) mouse model; experiment: High fat diet (HFD) with or without methionine choline deficient diet (MCD) fatty liver model; format: in vivo, mice (C57Bl); conditions: Example 3
Procedure: The effect of AAT on fatty liver disease is assessed by determining liver toxicity in a high fat diet (HFD) with or without methionine choline deficient diet (MCD) mouse model.
Blood is taken from the tail vein at the indicated time points and analyzed for:
Mice are sacrificed 14 weeks following beginning of treatment and analyzed for: • Weight • Epididymal fat weight (eq to visceral fat in humans) • MRI—to look at steatosis • ALT, AST • Serum for cytokines-what cytokines: IL2, 6, 4, 5, 12, IFN (gamma), TNF and TGF. IL-10, il-4, il-13, mcp1, • Adipokine—adiponectin which is anti-inflammatory adipokine and visfalatin • CBC including eosinophils • FACS for subsets of T cells • Assessment of eotaxin levels in the liver and in the adipose tissue by mRNA • Collect serum for Lipidomics to be conducted by OWL in Spain • Collect serum for mRNA of lymphocytes, to be performed in the USA by Ilumina sequencing machines • Liver fat quantification • Liver biopsy followed by histological evaluation: • 1. H&E staining • 2. Fat staining (IHC): Oil-R-O (frozen sections) • X2 non stained slides (paraffin embedded) • Snap freeze −80, ×3 samples (from each animal). • Assessment of fibrosis based on staining

[6] = test system: ConA-induced hepatitis mouse model; experiment: Concanavalin A-induced hepatitis model, serum IFN-γ by ELISA; format: in vivo, mice (C57BL/6); conditions: 15 hours following ConA
Procedure: as §1, §2
Cytokine measurement—Serum IFN-γ levels were measured at the indicated times in each animal using a commercially available ELISA kit (Quantikine, R&D Systems, MN, USA) according to manufacturer's instructions.

[7] = AAT orally administered, 2 hours prior ConA, 15 hours following ConA

Row | Compound | Infiltrating leukocytes (%) [1] | Lymphocyte adhesion (%) [1] | Necrotic lesions (%) [1] | secretion of 1-AZT [2] | serum levels of the AST liver enzyme ([3]; AAT 0.25 mg per mouse IP) | serum levels of the AST liver enzyme ([3]; AAT 0.5 mg per mouse IP) | serum levels of the ALT liver enzyme ([4]; AAT 0.35 mg per mouse IP, 2 hours prior ConA, 15 hours following ConA, p<0.005) | mice developing severe disease (severe hepatitis, serum ALT more than 1000 IU) ([4]; AAT 0.35 mg per mouse, compared to 100% in control (DDW) group, p<0.005) | serum levels of the ALT liver enzyme ([4]; AAT 1 mg per mouse IP, 2 hours prior ConA, 15 hours following ConA, p<0.005) | ALT serum levels ([4]; AAT 2 mg per mouse IP, 2 hours prior ConA, 15 hours following ConA) | AST levels ([4]; AAT IP, 2 hours prior ConA, 15 hours following ConA (FIG. 2)) | number of mice developing severe disease (serum ALT more than 1000 IU) ([4]; AAT at all doses tested) | ALT levels [4, 7] | AST levels [4, 7] | overall effect on the ConA-induced hepatitis model ([4]; IP administration of AAT) | symptoms of fatty liver disease [5] | number of infiltrating leukocytes into the liver parenchyma (in words) ([1]; AAT 0.35 mg per mouse IP) | serum IFNγ levels ([6]; AAT 1.0 mg per mouse IP, p<0.005) | serum IFNγ levels ([6]; AAT high dose 2.0 mg per mouse) | serum IFNγ levels ([6]; AAT low dose 0.35 mg per mouse)
1 | C[C@@H]1C[C@H]2[C@@H]3CCC4=CC(=O)C=C[C@]4(C)[C@@]3(F)[C@@H](O)C[C@]2(C)[C@@]1(O)C(=O)CO [Dexamethasone, reference compound] | 0.58 ± 2.5% | 0.58 ± 2.5% | 0% |  |  |  |  |  |  |  |  |  |  |  |  |  |  |  |  | 
2 | O=C(O)CCCc1ccccc1 [PBA, 4-phenylbutyric acid] |  |  |  | marked increase |  |  |  |  |  |  |  |  |  |  |  |  |  |  |  | 
3 | alpha-1 anti-trypsin [AAT] | 2.45 ± 8.33% | 2.8 ± 11.89% | 1 ± 1.67% |  | decrease | decrease | Statistically significant reduction | 50% | Statistically significant reduction | no effect | corresponded to the ALT levels | reduced the number of mice developing severe disease | no effect | no effect | dose-dependent beneficial effect | ameliorated symptoms of fatty liver disease | significant improvement; also recorded: reduced leukocyte infiltration | significant reduction | no significant effect | no significant effect

Source: patent publication US10980866B2, “Alpha-1 anti-trypsin for treating liver diseases” (Hadasit Medical Research Services and Development Ltd., priority 2014, dated 2021)
